“Also recorded” adds a separate entry of the source. Blank lines part the entries; values can stand above or below the compound they belong to.
Key:
ulnar volar nerves = assay: Finger blockade, digital nerve blocks in man; assay type: in vivo; settings: for Time of onset, finger blockade: time from injection to complete analgesia
Procedure: ^2 Digital nerve blocks in man. The test solutions were injected to
block the ulnar volar nerves on the 2nd and 4th fingers of the same
volunteers who had participated in the intracutaneous wheal tests
described above. The tests were carried out in a double blind fashion in
rotating system, so that each solution was used with equal frequency on
each of the blocked fingers. A total of for injections 1.0 ml per
injection, was done in each subject. One week later the procedure was
repeated in the same subjects using the remaining test solutions. This
method has been described by Dhuner et al. (1972) (for citation see Table
2 footnote 1). To measure the efficacy and duration of the blocks, the
individual fingers were pricked rapidly 10 times with a needle algesimete
and the number of painful pricks noted. Each finger was tested every five
minutes until complete recovery. The time of complete anesthesia has been
called "duration of anesthesia".
*i.e. the time from injection to complete analgesia?
**i.e. the number of successful anesthesias of total number of
anesthesias performed (no anesthesia is possible if the ulnar volar nerve
are not contacted by the anesthetic).

[1] = system: peripheral nerve endings of the epidermis; assay: Intracutaneous wheals, infiltration anesthesia on forearms of man; assay type: in vivo; settings: 12 healthy volunteers, pinprick
From the text: By use of intracutaneous wheals it is possible to measure the analgesic effect of an anesthetic on the peripheral nerve endings of the epidermis.
This technique gives information about:
(1) The duration of anesthesia.
^1 Infiltration anesthesia on forearms of man. The test solutions wer
injected intracutaneously on the dorsum of the forearms of 12 healthy
volunteers, 20-25 years old. Three wheals were made on each arm in a
rotating system in a doublebind fashion. The local anesthetic effect was
tested using a pinprick technique. The "duration of anesthesia" was
defined as the time during which none out of six pinpricks into the wheal
was felt. The method has been described by Dhuner et al. (1972). […]

tissue [2] = settings: in vivo; cited from earlier work
tissue [3] = assay: Tissue toxicity limits (Trypan blue test, threshold of tissue irritancy); assay type: in vivo; settings: in vivo
From the text: The toxicity of the homologous series of N-alkylpipecolic acid-2,6-xylidides increases step wise and quickly with the lengthening of the alkyl chain. This is manifest from Table 1 set forth below, which compares racemic mixtures of alkyl homologues having from 1 to 5 carbon atoms.
*Trypan blue test; Hoppe et al. (1950), 39, 147-151 "Use of Trypan Blue
and Rabbit Eye Tests For Irritation", J. Amer. Pharm. Assoc. (Scient.
Ed.), the values are approximate threshold values of tissue irritancy.

in vivo = settings: mouse, iv, read-out: LD50 I.v. (intravenous)
[4] = Anesthetic activity/potency comparison; assay type: in vivo; settings: comparison within homologous series
skin = assay: Skin temperature measurements within intracutaneous wheals; assay type: in vivo, man; settings: for Temperature Difference (T1 wheal vs T2 controls) / T1 Intracutaneous Wheal temperature: HCl-salt, 10 minutes after injection; for T1 Intracutaneous Wheal temperature: mean of 6 wheals; for effect on temperature over the wheal: comparison with lidocaine + adrenaline
Procedure: The mean value of 6 wheals for each substance forms the basis for the values. The control values, however, represent the mean value obtained from 4 different sites measured outside the wheals 90 degrees apart and 2 centimeters from the wheal's center.
In the temperature measurements, an Oriel temperature apparatus* has been used. This is battery driven and is connected to a detector (diameter, 2.5 mm) and has an accuracy of ±0.1° C. The temperature of the skin is measured by pressing the detector against the skin with a pressure of 100 grams. It is retained against the skin until a constant temperature is obtained.
In Table 4, T1 is the measurement obtained at the center of the wheal, and T2 is the average of four measurements taken 90 degrees apart outside of the wheal and within 2 centimeters of the wheal's center.

[5] = target: T1, guinea-pig papillary muscle sodium channels (Cavia porcellus, UniProt H0V4Z8); assay: Action on guinea-pig papillary muscle sodium channels (Vmax, recovery from block); assay type: cell-based
T1 construct: Vmax of action potential as measure of sodium current
From the text: Depression of cardiac conduction appears to be one of the primary mechanisms underlying local anesthetic cardiotoxicity. Depression of conduction by local anesthetics in both nerve and cardiac tissue results from a block of sodium channels. Furthermore, the degree of sodium channel block by local anesthetics is dependent upon the state of the sodium channel. […] Consequently, a block of sodium channels develops during the upstroke and plateau of the action potential and dissipates during the diastolic interval between beats. Since the effect of a local anesthetic is both state and time dependent, changes in both heart rate and diastolic membrane potential may alter drug action substantially.
(§1) Guinea pig papillary tests were carried out according to the recommendation of the "Report of the Subcommittee on Cardiotoxicity of Local Anesthetics" (Leroy D. Vandam, M.D., chairman). Guinea pig papillary muscle excised from the right ventricle were mounted in a single sucrose gap apparatus (Arlock & Katzune, 1985). Solutions maintained at 37° C.±0.5° continuously perfused the gap compartments. The rear chamber contained isotonic potassium chloride solution. The drugs were added to a Tris-Tyrode solution passing the tip of the muscle. The Tris-Tyrode solution contained (mM): NaCl, 145; KCl, 4; CaCl2, 1.2; MgCl2, 1.05; glucose, 5.5 Tris maleate, 5. It was adjusted to pH 7.4 with trismaleate and HCl before use and gassed with 100% oxygen. Isotonic sucrose solution isolated the rear from the tip to enable current- and voltage-clamping.
The muscles were depolarized with long current pulses (1500 msec). These current steps can induce automaticity or DIA (depolarization induced automaticity). The steps were adjusted so the preparations were depolarized to from -50 to -30 mV since that is in that range that calcium current conductance is initiated.
The results represent the mean from representative experiments. In the absence of drug, Vmax (maximum upstroke velocity of the action potential) recovers from inactivation with an exponential time constant of less that 30 msec at -90 mV (Gettes and Reuter, 1974). […] The time constant of this recovery process is different for channels blocked by different drugs.

[6] = Force of contraction of guinea pig papillary muscle; assay type: cell-based; settings: guinea pig, papillary muscle
Procedure: (§2) In order to initiate an investigation without the necessity to involve voltage-clamp of the calcium current, the preparations were subject to long depolarizing induced automaticity. If the cells are depolarized from about -50 to about -30 mV the automaticity is dependent on a transmembrane calcium current.
as §1, with “Guinea pig papillary muscle excised from the right ventricle were mounted in a single sucrose gap apparatus (Arlock & Katzune, 1985).” left out, “The Tris-Tyrode solution contained (mM): NaCl, 145; KCl, 4; CaCl2, 1.2; MgCl2, 1.05; glucose, 5.5 Tris maleate, 5.” left out
(§3) The force of contraction was measured with a strain gauge transducer before and after the addition of the test compounds to the medium. The percent reduction in maximum force of contraction from the control was calculated.

[7] = system: guinea pig papillary muscle; assay: as above; assay type: cell-based; settings: listed as LEA
Procedure: as §2
as §1, with “Guinea pig papillary muscle excised from the right ventricle were mounted in a single sucrose gap apparatus (Arlock & Katzune, 1985).” left out, “The Tris-Tyrode solution contained (mM): NaCl, 145; KCl, 4; CaCl2, 1.2; MgCl2, 1.05; glucose, 5.5 Tris maleate, 5.” left out
as §3

pigs = assay: Intracoronary administration in anesthetized pigs; assay type: in vivo, pig; settings: intracoronary
Procedure: Eight pigs weighing around 50 kg were anesthetized with a continuous infusion of pentobarbital at 600 mg/h. Ventilation was established via a tracheotomy with 30% oxygen in nitrogen and normoventilation by a Siemens-Elema Servoventilator 900B. The following catheters were inserted after cutdown: Left ventricular, aortic, pulmonary arterial, great cardiac venous, left anterior descending coronary, arterial and central venous. […] The corresponding doses for bupivaciane were 0.25, 0.5, 1, 2 and 4 mg and for LEA 0.33, 0.66, 1.33, 2.66 and 5.33 mg. The injection rate was adjusted according to the preinjection coronary blood flow. Each series of drug injections was preceded by a placebo infusion. Total hemodynamic and electrocardiographic recovery was allowed between doses and there was a one hour resting period between drugs.
Central pressures, left ventricular dP/dT and a complete chest lead ECG were recorded continuously. Cardiac output and great cardiac venous blood flow were determined before and directly after each dose of the local anesthetic agent.

SMILES: CCN1CCCC[C@H]1C(=O)Nc1c(C)cccc1C [2 L]
Analgesia-duration, finger blockade (ulnar volar nerves; Concentration 0.5%): 141 ± 18 min
Frequency (successful anesthesias of total performed) (ulnar volar nerves; Concentration 0.5%): 11/13
Time of onset, finger blockade (ulnar volar nerves; Concentration 0.5%): 9 ± 2 min

SMILES: Cc1cccc(C)c1NC(=O)[C@H]1CCCCN1C [1 D]
Analgesia-duration, intracutaneous wheals ([1]; Conc. 0.5%): 53 ± 8 min
Analgesia-duration, finger blockade (ulnar volar nerves; Concentration 1.0%): 71 ± 13 min
Frequency (successful anesthesias of total performed) (ulnar volar nerves; Concentration 1.0%): 9/13
Time of onset, finger blockade (ulnar volar nerves; Concentration 1.0%): 7 ± 2 min

SMILES: CCCCN1CCCC[C@@H]1C(=O)Nc1c(C)cccc1C [4 D]
Analgesia-duration, intracutaneous wheals ([1]; Conc. 0.25%): 75 ± 11 min
Analgesia-duration, finger blockade (ulnar volar nerves; Concentration 0.25%): 243 ± 38 min
Frequency (successful anesthesias of total performed) (ulnar volar nerves; Concentration 0.25%): 14/20
Time of onset, finger blockade (ulnar volar nerves; Concentration 0.25%): 15 ± 4 min

SMILES: CCCCCN1CCCC[C@@H]1C(=O)Nc1c(C)cccc1C [5 D]
tissue irritation (tissue [2]): irritating

SMILES: CCN1CCCCC1C(=O)Nc1c(C)cccc1C (stereo not drawn) [2 R, N--ethylpipecolic acid-2,6-xylidide]
Tissue toxicity limits in % (tissue [3]): 3.0%
LD50 (in vivo): 21 mg/kg
Analgesia-duration, finger blockade (ulnar volar nerves; Concentration 0.5%): 123 ± 19 min
Frequency (successful anesthesias of total performed) (ulnar volar nerves; Concentration 0.5%): 12/12
Time of onset, finger blockade (ulnar volar nerves; Concentration 0.5%): 10 ± 1 min

SMILES: CCCN1CCCCC1C(=O)Nc1c(C)cccc1C (stereo not drawn) [3 R, N--n-propylpipecolic acid 2,6-xylidide]
anesthetic effect [4]: so far below that of the racemic Bupivacaine
Tissue toxicity limits in % (tissue [3]): 1.5%
Analgesia-duration, intracutaneous wheals ([1]; Conc. 0.25%): 84 ± 15 min
Temperature Difference (T1 wheal vs T2 controls) (skin; Conc. 0.25%): -0.1 °C
T1 Intracutaneous Wheal temperature (skin; Conc. 0.25%): 33.1 °C
effect on temperature over the wheal (skin): practically no change in temperature
Analgesia-duration, finger blockade (ulnar volar nerves; Concentration 0.25%): 263 ± 31 min
Frequency (successful anesthesias of total performed) (ulnar volar nerves; Concentration 0.25%): 9/10
Time of onset, finger blockade (ulnar volar nerves; Concentration 0.25%): 10 ± 1 min

Vmax depression ([5]; 10^-4 M for a short period): very depressed
time to full recovery of Vmax ([5]; 10^-4 M, stimulus rate 1 Hz): 20 min
elimination from the tissue (washout) ([5]; 25 min. washout after 10^-4 M): readily eliminated from the tissue
recovery to 90% of drug-blocked channels ([5]; -90 mV): 2048 ms
inhibition at 5 µM [6]: 13.8%
inhibition at 10 µM [6]: 9.6%
inhibition at 100 µM [6]: 8%
sudden cardiac collapse (pigs): not
SMILES: CCCN1CCCC[C@H]1C(=O)Nc1c(C)cccc1C [3 L, L-N-n-propylpipecolic acid-2,6-xylidide]
anesthetic effect [4]: optimal increase of anesthetic effects; also recorded: markedly superior
attenuated excitability ([5]; 10^-4 M for a short period): no attenuated excitability could be detected
recovery from block ([5]; especially at hyperpolarized levels (-100--120 mV), listed as LEA): recovers faster; also recorded: considerably faster
effect on force of contraction/contractility [7]: only moderately diminished; also recorded: very mild depressant actions
Analgesia-duration, intracutaneous wheals ([1]; Conc. 0.25%): 220 ± 23 min
Temperature Difference (T1 wheal vs T2 controls) (skin; Conc. 0.25%): -1.2 °C
T1 Intracutaneous Wheal temperature (skin; Conc. 0.25%): 30.0 °C
effect on temperature over the wheal (skin): lowers the temperature over its wheal to approximately the same extent as the combination of lidocaine with adrenaline
Analgesia-duration, finger blockade (ulnar volar nerves; Concentration 0.25%): 739 ± 46 min
Frequency (successful anesthesias of total performed) (ulnar volar nerves; Concentration 0.25%): 6/7
Time of onset, finger blockade (ulnar volar nerves; Concentration 0.25%): 12 ± 2 min

SMILES: Cc1cccc(C)c1NC(=O)[C@@H]1CCCCN1C [1 L]
Analgesia-duration, intracutaneous wheals ([1]; Conc. 0.5%): 68 ± 11 min
Analgesia-duration, finger blockade (ulnar volar nerves; Concentration 1.0%): 124 ± 21 min
Frequency (successful anesthesias of total performed) (ulnar volar nerves; Concentration 1.0%): 11/12
Time of onset, finger blockade (ulnar volar nerves; Concentration 1.0%): 7 ± 3 min

SMILES: Cc1cccc(C)c1NC(=O)C1CCCCN1CCO (stereo not drawn) [R--N--2-hydroxyethyl-pipecolic acid-2,6-xylidide]
Temperature Difference (T1 wheal vs T2 controls) (skin; Conc. 1.0%): +0.5 °C
T1 Intracutaneous Wheal temperature (skin; Conc. 1.0%): 31.2 °C

SMILES: CCCCCN1CCCC[C@H]1C(=O)Nc1c(C)cccc1C [5 L]
tissue irritation (tissue [2]): irritating

SMILES: CCCCN1CCCC[C@H]1C(=O)Nc1c(C)cccc1C [4 L]
Analgesia-duration, intracutaneous wheals ([1]; Conc. 0.25%): 76 ± 10 min
Analgesia-duration, finger blockade (ulnar volar nerves; Concentration 0.25%): 259 ± 37 min
Frequency (successful anesthesias of total performed) (ulnar volar nerves; Concentration 0.25%): 13/20
Time of onset, finger blockade (ulnar volar nerves; Concentration 0.25%): 13 ± 3 min

SMILES: Cc1cccc(C)c1NC(=O)C1CCCCN1C (racemic) [1 R, N--methylpipecolic acid-2,6-xylidide]
Tissue toxicity limits in % (tissue [3]): 3.5%
Analgesia-duration, intracutaneous wheals ([1]; Conc. 0.5%): 65 ± 9 min
Analgesia-duration, finger blockade (ulnar volar nerves; Concentration 1.0%): 102 ± 22 min
Frequency (successful anesthesias of total performed) (ulnar volar nerves; Concentration 1.0%): 13/13
Time of onset, finger blockade (ulnar volar nerves; Concentration 1.0%): 7 ± 2 min

SMILES: CCN1CCCC[C@@H]1C(=O)Nc1c(C)cccc1C [2 D]
Analgesia-duration, intracutaneous wheals ([1]; Conc. 0.25%): 58 ± 11 min
Analgesia-duration, finger blockade (ulnar volar nerves; Concentration 0.5%): 112 ± 21 min
Frequency (successful anesthesias of total performed) (ulnar volar nerves; Concentration 0.5%): 10/13
Time of onset, finger blockade (ulnar volar nerves; Concentration 0.5%): 9 ± 3 min

SMILES: CCCN1CCCC[C@@H]1C(=O)Nc1c(C)cccc1C [3 D]
Analgesia-duration, intracutaneous wheals ([1]; Conc. 0.25%): 81 ± 14 min
Analgesia-duration, finger blockade (ulnar volar nerves; Concentration 0.25%): 175 ± 21 min
Frequency (successful anesthesias of total performed) (ulnar volar nerves; Concentration 0.25%): 7/8
Time of onset, finger blockade (ulnar volar nerves; Concentration 0.25%): 14 ± 3 min
